Experimental data taken from ChEMBL document CHEMBL1201862, “PubChem BioAssay data set” (2004).
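Five concentrations, 48 hours, 96-well plates. The concentration for 50% growth inhibition is given as GI50.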 Calls of active or inactive are those of the source. No stated cut-off is given here; in the data, active = GI50 up to about 1.1 µM and inactive = higher.

Key:
Assay in all cases: inhibition of tumour cell growth, NCI panel, 48 h
786-0 = system: 786-0
ACHN = system: ACHN
CCRF-CEM = system: CCRF-CEM
EKVX = system: EKVX
HCT-15 = system: HCT-15
HT-29 = system: HT-29
IGROV-1 = system: IGROV-1
KM12 = system: KM12
LOX IMVI = system: LOX IMVI
M14 = system: M14
MCF7 = system: MCF7
MDA-MB-231 = system: MDA-MB-231
NCI-H23 = system: NCI-H23
NCI/ADR-RES = system: NCI/ADR-RES
RPMI-8226 = system: RPMI-8226
SK-MEL-28 = system: SK-MEL-28
SK-MEL-5 = system: SK-MEL-5
SNB-75 = system: SNB-75
UACC-62 = system: UACC-62
PC-3 = system: PC-3

SMILES	GI50 (786-0)	GI50 (ACHN)	GI50 (CCRF-CEM)	GI50 (EKVX)	GI50 (HCT-15) [µM]	GI50 (HT-29)	GI50 (IGROV-1)	GI50 (KM12)	GI50 (LOX IMVI)	GI50 (M14)	GI50 (MCF7)	GI50 (MDA-MB-231)	GI50 (NCI-H23)	GI50 (NCI/ADR-RES)	GI50 (RPMI-8226)	GI50 (SK-MEL-28)	GI50 (SK-MEL-5)	GI50 (SNB-75)	GI50 (UACC-62)	GI50 (PC-3)
O=C(CC(=O)CC(O)(C(F)(F)F)C(F)(F)F)CC(O)(C(F)(F)F)C(F)(F)F	> 10 µM (inactive)	> 10 µM (inactive)	> 10 µM (inactive)	> 10 µM (inactive)	> 10	8.49 µM (inactive)	> 10 µM (inactive)	> 10 µM (inactive)	> 10 µM (inactive)	> 10 µM (inactive)	> 10 µM (inactive)	> 10 µM (inactive)	> 10 µM (inactive)	> 10 µM (inactive)	> 10 µM (inactive)	> 10 µM (inactive)	> 10 µM (inactive)	> 10 µM (inactive)	> 10 µM (inactive)	
CC1(C)CC2C(=O)c3ccccc3NC2c2ccccc21 (stereo not drawn)	3.94 µM (inactive)	14.4 µM (inactive)	4.34 µM (inactive)	43.2 µM (inactive)	3.6	3.48 µM (inactive)	7.13 µM (inactive)	4.3 µM (inactive)	4.76 µM (inactive)	5.28 µM (inactive)	4.33 µM (inactive)		4.98 µM (inactive)	3.49 µM (inactive)	2.54 µM (inactive)	5.51 µM (inactive)	3.5 µM (inactive)	4.18 µM (inactive)	3.9 µM (inactive)	3.6 µM (inactive)
O=C(NCc1ccccc1)c1cnc(Cl)cn1	> 100 µM (inactive)	20.1 µM (inactive)	23.1 µM (inactive)	> 100 µM (inactive)	23.1	33.2 µM (inactive)	42.8 µM (inactive)	> 100 µM (inactive)	28.8 µM (inactive)	60.8 µM (inactive)	> 100 µM (inactive)	85.5 µM (inactive)	23.3 µM (inactive)	16.6 µM (inactive)	44.2 µM (inactive)	> 100 µM (inactive)	54 µM (inactive)	29.7 µM (inactive)	> 100 µM (inactive)	
COc1cc(C(=O)NNC(=O)c2cc(Br)ccc2NC(=O)c2cccs2)cc(OC)c1OC	17.7 µM (inactive)	17 µM (inactive)	18.1 µM (inactive)	6.65 µM (inactive)	15.5	19.5 µM (inactive)	22.6 µM (inactive)	22.8 µM (inactive)	15.3 µM (inactive)	19.3 µM (inactive)	14.4 µM (inactive)		19.4 µM (inactive)	18.5 µM (inactive)	13.2 µM (inactive)		13.8 µM (inactive)	4.91 µM (inactive)	16.7 µM (inactive)	24 µM (inactive)
CC(C)(C)NCc1cc(C(C)(C)C)cc(-c2ccc(Cl)cc2)c1O	13.9 µM (inactive)	13.8 µM (inactive)		12.7 µM (inactive)	11	17.9 µM (inactive)	11.2 µM (inactive)	13.2 µM (inactive)		15 µM (inactive)	14.6 µM (inactive)	11.2 µM (inactive)	12.6 µM (inactive)	14.6 µM (inactive)	9.53 µM (inactive)	13.8 µM (inactive)	16.2 µM (inactive)	10.7 µM (inactive)	13.7 µM (inactive)	
O=C(Cc1nc2ccccc2s1)C(=O)Nc1cccc(Cl)c1	> 100 µM (inactive)	> 100 µM (inactive)	> 100 µM (inactive)	> 100 µM (inactive)	> 100	> 100 µM (inactive)	> 100 µM (inactive)	> 100 µM (inactive)	> 100 µM (inactive)	> 100 µM (inactive)			> 100 µM (inactive)		> 100 µM (inactive)	> 100 µM (inactive)	> 100 µM (inactive)	48.9 µM (inactive)	> 100 µM (inactive)	
